Measured values from ChEMBL document CHEMBL3045426, “Synthesis, Antiviral and Antibacterial Activities of Isatin Mannich Bases” (Med Chem Res, 2005).
≈ marks a conversion by molar mass, not a printed value.

Test system: not listed separately
Assay: Selectivity index, ratio of CC50 for human MT4 cells to EC50 for HIV1 3B infected in MT4 cells
Assay type: toxicity, cell-based
Settings: read-out: Ratio CC50/EC50

| Structure (SMILES) | selectivity ratio |
| --- | --- |
| COc1cc(Cc2cnc(/N=C3\C(=O)N(CN(Cc4ccccc4)Cc4ccccc4)c4ccc(Cl)cc43)nc2N)cc(OC)c1OC | 3 |

Test system: Vibrio cholerae
Assay: Antimicrobial activity against Vibrio cholerae 01 after 18 to 20 hr by agar dilution method
Assay type: functional
Settings: 1

| Structure (SMILES) | MIC [µg/mL] |
| --- | --- |
| COc1cc(Cc2cnc(/N=C3\C(=O)N(CN(Cc4ccccc4)Cc4ccccc4)c4ccc(Cl)cc43)nc2N)cc(OC)c1OC | 1.22 (≈ 1.84 µM) |

Test system: Priestia megaterium
Assay: Antimicrobial activity against Bacillus megaterium after 18 to 20 hr by agar dilution method
Assay type: functional
Settings: not given

| Structure (SMILES) | MIC [µg/mL] |
| --- | --- |
| COc1cc(Cc2cnc(/N=C3\C(=O)N(CN(Cc4ccccc4)Cc4ccccc4)c4ccc(Cl)cc43)nc2N)cc(OC)c1OC | 1250 (≈ 1880 µM) |

Test system: Enterobacter
Assay: Antimicrobial activity against Enterobacter after 18 to 20 hr by agar dilution method
Assay type: functional
Settings: not given

| Structure (SMILES) | MIC [µg/mL] |
| --- | --- |
| COc1cc(Cc2cnc(/N=C3\C(=O)N(CN(Cc4ccccc4)Cc4ccccc4)c4ccc(Cl)cc43)nc2N)cc(OC)c1OC | 625 (≈ 942 µM) |

Test system: Citrobacter freundii
Assay: Antimicrobial activity against Citrobacter freundii after 18 to 20 hr by agar dilution method
Assay type: functional
Settings: not given

| Structure (SMILES) | MIC [µg/mL] |
| --- | --- |
| COc1cc(Cc2cnc(/N=C3\C(=O)N(CN(Cc4ccccc4)Cc4ccccc4)c4ccc(Cl)cc43)nc2N)cc(OC)c1OC | 1250 (≈ 1880 µM) |

Test system: Salmonella enteritidis
Assay: Antimicrobial activity against Salmonella enterica subsp. enterica serovar Enteritidis after 18 to 20 hr by agar dilution method
Assay type: functional
Settings: not given

| Structure (SMILES) | MIC [µg/mL] |
| --- | --- |
| COc1cc(Cc2cnc(/N=C3\C(=O)N(CN(Cc4ccccc4)Cc4ccccc4)c4ccc(Cl)cc43)nc2N)cc(OC)c1OC | 625 (≈ 942 µM) |

Test system: Salmonella typhimurium
Assay: Antimicrobial activity against Salmonella enterica subsp. enterica serovar Typhimurium after 18 to 20 hr by agar dilution method
Assay type: functional
Settings: not given

| Structure (SMILES) | MIC [µg/mL] |
| --- | --- |
| COc1cc(Cc2cnc(/N=C3\C(=O)N(CN(Cc4ccccc4)Cc4ccccc4)c4ccc(Cl)cc43)nc2N)cc(OC)c1OC | 1250 (≈ 1880 µM) |

Test system: Proteus mirabilis
Assay: Antimicrobial activity against Proteus mirabilis after 18 to 20 hr by agar dilution method
Assay type: functional
Settings: not given

| Structure (SMILES) | MIC [µg/mL] |
| --- | --- |
| COc1cc(Cc2cnc(/N=C3\C(=O)N(CN(Cc4ccccc4)Cc4ccccc4)c4ccc(Cl)cc43)nc2N)cc(OC)c1OC | 625 (≈ 942 µM) |

Test system: Proteus vulgaris
Assay: Antimicrobial activity against Proteus vulgaris after 18 to 20 hr by agar dilution method
Assay type: functional
Settings: not given

| Structure (SMILES) | MIC [µg/mL] |
| --- | --- |
| COc1cc(Cc2cnc(/N=C3\C(=O)N(CN(Cc4ccccc4)Cc4ccccc4)c4ccc(Cl)cc43)nc2N)cc(OC)c1OC | 625 (≈ 942 µM) |

Test system: Edwardsiella tarda
Assay: Antimicrobial activity against Edwardsiella tarda after 18 to 20 hr by agar dilution method
Assay type: functional
Settings: not given

| Structure (SMILES) | MIC [µg/mL] |
| --- | --- |
| COc1cc(Cc2cnc(/N=C3\C(=O)N(CN(Cc4ccccc4)Cc4ccccc4)c4ccc(Cl)cc43)nc2N)cc(OC)c1OC | 625 (≈ 942 µM) |

Test system: Escherichia coli
Assay: Antimicrobial activity against Escherichia coli NCTC 10418 after 18 to 20 hr by agar dilution method
Assay type: functional
Settings: not given

| Structure (SMILES) | MIC [µg/mL] |
| --- | --- |
| COc1cc(Cc2cnc(/N=C3\C(=O)N(CN(Cc4ccccc4)Cc4ccccc4)c4ccc(Cl)cc43)nc2N)cc(OC)c1OC | 625 (≈ 942 µM) |

Test system: Salmonella typhi
Assay: Antimicrobial activity against Salmonella enterica subsp. enterica serovar Typhi after 18 to 20 hr by agar dilution method
Assay type: functional
Settings: not given

| Structure (SMILES) | MIC [µg/mL] |
| --- | --- |
| COc1cc(Cc2cnc(/N=C3\C(=O)N(CN(Cc4ccccc4)Cc4ccccc4)c4ccc(Cl)cc43)nc2N)cc(OC)c1OC | 625 (≈ 942 µM) |

Test system: Salmonella paratyphi
Assay: Antimicrobial activity against Salmonella enterica subsp. enterica serovar Paratyphi A after 18 to 20 hr by agar dilution method
Assay type: functional
Settings: not given

| Structure (SMILES) | MIC [µg/mL] |
| --- | --- |
| COc1cc(Cc2cnc(/N=C3\C(=O)N(CN(Cc4ccccc4)Cc4ccccc4)c4ccc(Cl)cc43)nc2N)cc(OC)c1OC | 625 (≈ 942 µM) |

Test system: Vibrio parahaemolyticus
Assay: Antimicrobial activity against Vibrio parahaemolyticus after 18 to 20 hr by agar dilution method
Assay type: functional
Settings: not given

| Structure (SMILES) | MIC [µg/mL] |
| --- | --- |
| COc1cc(Cc2cnc(/N=C3\C(=O)N(CN(Cc4ccccc4)Cc4ccccc4)c4ccc(Cl)cc43)nc2N)cc(OC)c1OC | 19.5 (≈ 29.4 µM) |

Test system: Vibrio cholerae
Assay: Antimicrobial activity against Vibrio cholerae 0139 after 18 to 20 hr by agar dilution method
Assay type: functional
Settings: 139

| Structure (SMILES) | MIC [µg/mL] |
| --- | --- |
| COc1cc(Cc2cnc(/N=C3\C(=O)N(CN(Cc4ccccc4)Cc4ccccc4)c4ccc(Cl)cc43)nc2N)cc(OC)c1OC | 312 (≈ 471 µM) |

Test system: Vibrio fluvialis
Assay: Antimicrobial activity against Vibrio fluvialis after 18 to 20 hr by agar dilution method
Assay type: functional
Settings: not given

| Structure (SMILES) | MIC [µg/mL] |
| --- | --- |
| COc1cc(Cc2cnc(/N=C3\C(=O)N(CN(Cc4ccccc4)Cc4ccccc4)c4ccc(Cl)cc43)nc2N)cc(OC)c1OC | 1250 (≈ 1880 µM) |

Test system: Vibrio mimicus
Assay: Antimicrobial activity against Vibrio mimicus after 18 to 20 hr by agar dilution method
Assay type: functional
Settings: not given

| Structure (SMILES) | MIC [µg/mL] |
| --- | --- |
| COc1cc(Cc2cnc(/N=C3\C(=O)N(CN(Cc4ccccc4)Cc4ccccc4)c4ccc(Cl)cc43)nc2N)cc(OC)c1OC | 4.88 (≈ 7.36 µM) |

Test system: Pseudomonas aeruginosa
Assay: Antimicrobial activity against Pseudomonas aeruginosa after 18 to 20 hr by agar dilution method
Assay type: functional
Settings: not given

| Structure (SMILES) | MIC [µg/mL] |
| --- | --- |
| COc1cc(Cc2cnc(/N=C3\C(=O)N(CN(Cc4ccccc4)Cc4ccccc4)c4ccc(Cl)cc43)nc2N)cc(OC)c1OC | 1250 (≈ 1880 µM) |

Test system: Staphylococcus aureus
Assay: Antimicrobial activity against Staphylococcus aureus after 18 to 20 hr by agar dilution method
Assay type: functional
Settings: not given

| Structure (SMILES) | MIC [µg/mL] |
| --- | --- |
| COc1cc(Cc2cnc(/N=C3\C(=O)N(CN(Cc4ccccc4)Cc4ccccc4)c4ccc(Cl)cc43)nc2N)cc(OC)c1OC | 625 (≈ 942 µM) |

Test system: Morganella morganii
Assay: Antimicrobial activity against Morganella morganii after 18 to 20 hr by agar dilution method
Assay type: functional
Settings: not given

| Structure (SMILES) | MIC [µg/mL] |
| --- | --- |
| COc1cc(Cc2cnc(/N=C3\C(=O)N(CN(Cc4ccccc4)Cc4ccccc4)c4ccc(Cl)cc43)nc2N)cc(OC)c1OC | 625 (≈ 942 µM) |

Test system: Shigella boydii
Assay: Antimicrobial activity against Shigella boydii after 18 to 20 hr by agar dilution method
Assay type: functional
Settings: not given

| Structure (SMILES) | MIC [µg/mL] |
| --- | --- |
| COc1cc(Cc2cnc(/N=C3\C(=O)N(CN(Cc4ccccc4)Cc4ccccc4)c4ccc(Cl)cc43)nc2N)cc(OC)c1OC | 1.22 (≈ 1.84 µM) |

Test system: Plesiomonas
Assay: Antimicrobial activity against Plesiomonas after 18 to 20 hr by agar dilution method
Assay type: functional
Settings: not given

| Structure (SMILES) | MIC [µg/mL] |
| --- | --- |
| COc1cc(Cc2cnc(/N=C3\C(=O)N(CN(Cc4ccccc4)Cc4ccccc4)c4ccc(Cl)cc43)nc2N)cc(OC)c1OC | 39.1 (≈ 58.9 µM) |

Test system: Shigella sonnei
Assay: Antimicrobial activity against Shigella sonnei after 18 to 20 hr by agar dilution method
Assay type: functional
Settings: not given

| Structure (SMILES) | MIC [µg/mL] |
| --- | --- |
| COc1cc(Cc2cnc(/N=C3\C(=O)N(CN(Cc4ccccc4)Cc4ccccc4)c4ccc(Cl)cc43)nc2N)cc(OC)c1OC | 1250 (≈ 1880 µM) |

Test system: Klebsiella pneumoniae
Assay: Antimicrobial activity against Klebsiella pneumoniae after 18 to 20 hr by agar dilution method
Assay type: functional
Settings: not given

| Structure (SMILES) | MIC [µg/mL] |
| --- | --- |
| COc1cc(Cc2cnc(/N=C3\C(=O)N(CN(Cc4ccccc4)Cc4ccccc4)c4ccc(Cl)cc43)nc2N)cc(OC)c1OC | 1250 (≈ 1880 µM) |

Test system: Klebsiella pneumoniae
Assay: Antimicrobial activity against Klebsiella pneumoniae subsp. ozaenae after 18 to 20 hr by agar dilution method
Assay type: functional
Settings: not given

| Structure (SMILES) | MIC [µg/mL] |
| --- | --- |
| COc1cc(Cc2cnc(/N=C3\C(=O)N(CN(Cc4ccccc4)Cc4ccccc4)c4ccc(Cl)cc43)nc2N)cc(OC)c1OC | 1250 (≈ 1880 µM) |

Test system: Mycobacterium tuberculosis
Assay: Antimycobacterial activity against Mycobacterium tuberculosis H37Rv ATCC 27294 at 6.25 ug/ml by MABA
Assay type: functional
Settings: not given

| Structure (SMILES) | inhibition at 6.25 µg/mL [%] |
| --- | --- |
| COc1cc(Cc2cnc(/N=C3\C(=O)N(CN(Cc4ccccc4)Cc4ccccc4)c4ccc(Cl)cc43)nc2N)cc(OC)c1OC | 97 |

Test system: not listed separately
Assay: Cytotoxicity against Homo sapiens (human) HuH7 cells assessed as cell growth at 50 ug/ml after 3 days by Neutral red assay
Assay type: cell-based, Huh-7
Settings: read-out: Activity

| Structure (SMILES) | viability at 72 h, 50 ug/ml [%] |
| --- | --- |
| COc1cc(Cc2cnc(/N=C3\C(=O)N(CN(Cc4ccccc4)Cc4ccccc4)c4ccc(Cl)cc43)nc2N)cc(OC)c1OC | 65 |

Test system: not listed separately
Assay: Cytotoxicity against Homo sapiens (human) CEM cells after 5 days by MTT assay
Assay type: cell-based
Settings: CEM cells (CCRF-CEM)

| Structure (SMILES) | CC50 at 120 h [µg/mL] |
| --- | --- |
| COc1cc(Cc2cnc(/N=C3\C(=O)N(CN(Cc4ccccc4)Cc4ccccc4)c4ccc(Cl)cc43)nc2N)cc(OC)c1OC | 37.1 (≈ 55.9 µM) |

Test system: Human immunodeficiency virus 1
Assay: Antiviral activity against Human immunodeficiency virus 1 IIIB infected CEM cells assessed as protection against viral infection after 6 days by XTT assay
Assay type: functional, CCRF-CEM
Set-up: concentration or dose not given beside the values
Settings: not given

| Structure (SMILES) | Activity [%] |
| --- | --- |
| COc1cc(Cc2cnc(/N=C3\C(=O)N(CN(Cc4ccccc4)Cc4ccccc4)c4ccc(Cl)cc43)nc2N)cc(OC)c1OC | 20.98 |

Test system: Human immunodeficiency virus 1
Assay: Antiviral activity against Human immunodeficiency virus 1 IIIB infected CEM cells assessed as inhibition of virus-induced cytopathicity after 6 days by XTT assay
Assay type: functional, organism-based
Settings: CCRF-CEM, 144 h

| Structure (SMILES) | EC50 [µg/mL] |
| --- | --- |
| COc1cc(Cc2cnc(/N=C3\C(=O)N(CN(Cc4ccccc4)Cc4ccccc4)c4ccc(Cl)cc43)nc2N)cc(OC)c1OC | > 37.1 |

Test system: not listed separately
Assay: Cytotoxicity against Homo sapiens (human) MT4 cells after 5 days by MTT assay
Assay type: cell-based
Settings: not given

| Structure (SMILES) | CC50 at 120 h [µg/mL] |
| --- | --- |
| COc1cc(Cc2cnc(/N=C3\C(=O)N(CN(Cc4ccccc4)Cc4ccccc4)c4ccc(Cl)cc43)nc2N)cc(OC)c1OC | 44.1 (≈ 66.5 µM) |

Test system: Human immunodeficiency virus 1
Assay: Antiviral activity against Human immunodeficiency virus 1 IIIB infected MT4 cells assessed as inhibition of virus-induced cytopathicity after 5 days by MTT assay
Assay type: functional, organism-based
Settings: MT4, 120 h

| Structure (SMILES) | EC50 [µg/mL] |
| --- | --- |
| COc1cc(Cc2cnc(/N=C3\C(=O)N(CN(Cc4ccccc4)Cc4ccccc4)c4ccc(Cl)cc43)nc2N)cc(OC)c1OC | 10.4 (≈ 15.7 µM) |

Test system: Hepatitis C virus
Assay: Antiviral activity against Hepatitis C virus BM4-5 infected in Huh7 cells assessed as inhibition of viral RNA replication by phosphor screening method
Assay type: functional, Hepacivirus hominis, Huh-7
Settings: not given

| Structure (SMILES) | inhibition (INH) [%] |
| --- | --- |
| COc1cc(Cc2cnc(/N=C3\C(=O)N(CN(Cc4ccccc4)Cc4ccccc4)c4ccc(Cl)cc43)nc2N)cc(OC)c1OC | 81 |

Test system: Human immunodeficiency virus 1
Assay: Antiviral activity against Human immunodeficiency virus 1 IIIB infected MT4 cells assessed as protection against viral infection after 5 days by MTT assay
Assay type: functional
Set-up: concentration or dose not given beside the values
Settings: not given

| Structure (SMILES) | Activity [%] |
| --- | --- |
| COc1cc(Cc2cnc(/N=C3\C(=O)N(CN(Cc4ccccc4)Cc4ccccc4)c4ccc(Cl)cc43)nc2N)cc(OC)c1OC | 95.1 |
